Data: patent US20210380988A1, “Reducing Prominin2-Mediated Resistance to Ferroptotic Cell Death” (University of Massachusetts, priority 2020, published 2021)

Key:
SW620 = experiment: Viability with RSL3 and KRIBB11 co-treatment; format: cell-based; conditions: SW620, 10 uM KRIBB11, 24 hours
Description: (§1) Cell-based assays: Assays to assess survival in response to matrix detachment were performed as described (Brown C W, 2017). To assay survival in response to GPX4 inhibition, adherent cells in 96 well plates (1.0×10^4 per well) were treated with either DMSO, RSL3, ML210, FIN56 or erastin for 24 hrs with and without ferrostatin-1 or DFO. Subsequently, cells were fixed in 4% paraformaldehyde (Boston BioProducts), stained with crystal violet (Sigma) and read on a microplate reader (Beckman Colter) at absorbance 595. Absorbances were normalized to DMSO.

SW480 = experiment: Viability with RSL3 and KRIBB11 co-treatment; format: cell-based; conditions: SW480, 10 uM KRIBB11, 24 hours
Description: as §1

HCC1806 = experiment: Viability with RSL3 and KRIBB11 co-treatment; format: cell-based; conditions: HCC1806, 10 uM KRIBB11, 24 hours
Description: as §1

prominin2 = experiment: PROM2 mRNA (qPCR) and prominin2 protein (immunoblot) expression in MCF10A cells; format: cell-based; conditions: MCF10A, 10 uM KRIBB11, 25 uM 4HNE or 5 uM RSL3, 60 minutes
Description: Biochemical experiments: Immunoblotting and qPCR were performed as described (Brown C W, 2017). Briefly, for immunoblotting, cell lysates were extracted using radioimmunoprecipitation assay (RIPA) buffer (Boston Bioproducts). Extracts were separated by SDS PAGE using the specified antibodies. Immunoprecipitation was performed on lysates isolated using NP-40 buffer (Boston Bioproducts). Lysates were pre-cleared prior to overnight incubation with the primary antibody and protein A agarose beads (Sigma-Aldrich). Immune complexes were separated by SDS PAGE and immunoblotted as described in figure legends. RNA was isolated from cells (BioBasic) and cDNA was generated using the All in One cDNA Synthesis SuperMix (BioScript Solutions). qPCR was performed using a SYBR green master mix (BioScript Solutions). Sequences for primers used were as follows: […]

Hs578t cells = experiment: Survival of adherent cells in response to GPX4 inhibition (crystal violet); format: cell-based; conditions: Hs578t
Description: as §1

MCF10A cells = experiment: as above; format: cell-based
Description: as §1

HSF1 = HSF1 mRNA, protein, S326 phosphorylation and nuclear localization in MCF10A cells; format: cell-based; conditions: 10 uM KRIBB11 with 4HNE or RSL3, 60 minutes
MDA-MB-231 cells = experiment: Survival of adherent cells in response to GPX4 inhibition (crystal violet); format: cell-based; conditions: MDA-MB-231, prominin2 expression construct vs vector control
Description: as §1

cancer cell lines = conditions: across hundreds of cancer cells lines; cited from earlier work

Structure (SMILES): CNc1ccc([N+](=O)[O-])c(Nc2ccc3[nH]ncc3c2)n1 [KRIBB11, N(2)-(1H-indazole-5-yl)-N(6)-methyl-3-nitropyridine-2,6-diamine]
- ability to resist RSL3-induced ferroptosis when co-treated with RSL3 and KRIBB11 (SW620): significantly reduced
- ability to resist RSL3-induced ferroptosis when co-treated with RSL3 and KRIBB11 (SW480): significantly reduced
- ability to resist RSL3-induced ferroptosis when co-treated with RSL3 and KRIBB11 (HCC1806): significantly reduced
- upregulation of PROM2 mRNA and prominin2 protein expression in response to either 4HNE or RSL3 (prominin2): prevented the upregulation
- ability to resist RSL3-induced ferroptosis when co-treated with RSL3 and KRIBB11 (Hs578t cells; 10 uM KRIBB11, 24 hours): significantly reduced
- death induced by RSL3, FIN56, erastin, or imidazole ketone erastin on chemical inhibition of HSF1 (MCF10A cells; otherwise resistant cells, cell line not named at b53, FIG. 16E: MCF10A): sensitized otherwise resistant cells to death
- expression, phosphorylation and nuclear localization of HSF1 (HSF1): neither the expression, phosphorylation nor nuclear localization of HSF1 was affected

Structure (SMILES): Cc1onc(C(=O)N2CCN(C(c3ccc(Cl)cc3)c3ccc(Cl)cc3)CC2)c1[N+](=O)[O-] [ML210]
- sensitivity to compound in prominin2 knock-down cells compared to control cells (Hs578t cells; prominin2 siRNA 48 hours, compound 24 hrs): significant increase in sensitivity
- sensitivity to compound in prominin2 knock-down cells compared to control cells (MCF10A cells; MCF10A, prominin2 siRNA 48 hours, compound 24 hrs): significant increase in sensitivity
- cell death in response to compound with exogenous prominin2 expression (MDA-MB-231 cells): sufficient to inhibit cell death
- correlation of high prominin2 expression with response to compound (cancer cell lines): significantly correlated with resistance
